Measured values reported in patent US6844365B2, “Substances for use in treating psoriasis” (Laboratoire Medidom S.A., priority 2000, dated 2005).

Legend:
human keratinocytes = assay: Viability of keratinocytes by trypan blue exclusion; type: cell-based; details: increasing doses, 24 and 96 hours, except 100 and 200 μM at 96 hours
Method: Human epidermal keratinocytes were obtained from foreskin by dispase II (5 mg/ml for 60 minutes at 37° C., Boehringer Mannheim, Germany) separation of epidermal sheets.
The epidermis was incubated in 0.25% trypsin/0.02% EDTA for 20 minutes a 37° C. and mechanically disaggregated.
The epidermal cell suspensions were plated (2.5×10^4/cm^2) on mytomicin C-treated 3T3-J2 cells (2.4×10^4/cm^2), ATCC, Rockville, Md., USA) and cultured in 5% CO2 humidified atmosphere in the keratinocyte growth medium: Dulbecco's modified Eagle's medium and Ham's F12 media (3:1 mixture, Biochrom KG, Berlin, Germany) containing fetal calf serum (10%, ICN Biomedicals, Aurora, Ohio), insulin ([…], Sigma, St.Louis, Mo., USA), transferrin ([…], Sigma), adenine (0.18 mM, Sigma), hydrocortisone ([…], Sigma), triiodothyronine (20 pM, Sigma), cholera toxin (0.1 nM, Sigma), epidermal growth factor (10 ng/ml, Sigma), 4 mM glutamine (Sigma), and penicillin/streptomycin (50 IU/ml, Biochrom.). […]
Cell viability was evaluated by trypan blue exclusion.
In order to understand the effects of diacerein on human keratinocytes, a possible alteration of vital parameters was evaluated by the trypan blue exclusion.

IL-1 = IL-1 release from keratinocytes by ELISA; type: cell-based, human
Method: (§1) UV-B radiation was delivered with a battery of lamps (TL 20W/12RS UV-B Philips Medical) before and after treatment with diacerein.
(§2) In other experiments, UVB irradiation was delivered only after diacerein addition.
(§3) Before irradiation, the cells were washed once with PBS and irradiated in presence of PBS.
(§4) Controls were sham irradiated for identical periods as measured by International Light Research Radiometer (Newburyport, Mass.).
(§5) Quantitation of cytokine levels was performed by a quantitative two-site enzyme immunoassay according to manufacturer's instructions, using ELISA kits for IL-1, IL-6, IL-8 and TNF-α.
(§6) The sample concentration was determined by absorbance at 450 nm with the correction wavelength set at 540 nm.
IL-1 is constitutively expressed in human keratinocytes. IL-1 release was measured after the addition of increasing doses of diacerein.

IL-6 = IL-6 release from keratinocytes by ELISA; type: cell-based, human
Method: as §1, §2, §3, §4, §5, §6
No constitutive levels of IL-6 are normally detected in human keratinocytes.
Therefore, IL-6 release was stimulated by UVB irradiation.

IL-8 = IL-8 release from keratinocytes by ELISA; type: cell-based, human
Method: as §1, §2, §3, §4, §5, §6
As TNF-α is a potent inducer of IL-8 in keratinocytes and plays an important role in the pathogenesis of psoriasis, the effect of diacerein on IL-8 was also evaluated after stimulating keratinocytes with TNF-α.

TNF-α = TNF-α release from keratinocytes by ELISA; type: cell-based, human; details: 24 hours after UVB irradiation
Method: as §1, §2, §3, §4, §5, §6
As mentioned above, TNF-α is of great relevance in the pathomechanisms of psoriasis. Therefore, we wanted to evaluate the effect of diacerein on the release of this cytokine from human keratinocytes.

[1] = system: patients with mild to moderate psoriatic arthritis; assay: Clinical trial of Artrodar (diacerein) in psoriasis with mild to moderate psoriatic arthritis; type: in vivo, human; details: for Ritchie articular index, hip sx: baseline Ritchie 2
Method: The aim of this study was to assess the efficacy and safety of diacerein in the treatment of psoriasis with mild to moderate psoratic arthritis.
The investigational drug, Artrodar® (Laboratoire Medidom S. A. (Geneva)), is a size 1 hard gelatin capsule.
Ten patients satisfying all the inclusion and exclusion criteria indicated below were tested.
Male or female patients over 18 years of age with • cutaneous involvement defined by the psoriasis area and severity index (PASI) (<15); • persistent negative latex test or ELISA for rheumatoid factors; • established diagnosis of mild to moderate severity psoriatic arthritis of at least 3 months duration characterized by oligoarthritis (<4 involved joints) and/or spondyloarthritis; • normal values for haematology and clinical chemistry values (ESR 1 h<30 mm, WBC with leucocyte differential count, RBC, Hb ([…]), platelets, creatinine, transaminases, alkaline phosphatase, bilirubin); • normal or drug-controlled blood pressure values; • failure to respond to topical (including emollients and coal tar) and phototherapy; • evidence of medically approved contraceptive methods in women of childbearing age; • written informed consent from each patient;
Exclusion criteria: • patient under 18 years of age; • positive rheumatoid factor (RF) or antinuclear antibodies (ANA) >1:80; • history of inflammatory bowel disease or evidence of another rheumatologic disorder; • ascertained individual sensitivity to diacerein or any of the components in the capsule; • chronic illness that, in the opinion of the Investigator, would limit successful participation in the trial; • treatment with slow acting drugs and/or corticosteroids during the month prior to study start; • patient who, in the judgement of the Investigator, […]. Treatment
Treatment was 2×50 mg capsules of Artrodar® (each capsule contains 50 mg diacerein) taken orally per day for 6 months.
One capsule was to be taken in the afternoon after lunch while the other was to be taken in the evening after dinner.
No slow acting disease modifying drugs for psoriatic arthritis or corticosteroids were allowed during one month prior to the start of the study and throughout the study.
Treatment with NSAIDs, analgesics and other drugs was kept constant during the study and the doses used were recorded every week.
The following were assessed at baseline and at regular intervals during the study: • The PASI index (Fredriksson and Petterson, 1978)^i for assessing cutaneous involvement. • Pain on activity (target joint) assessed using the VAS. • Ritchie articular index.
All adverse events either observed by the Investigator or reported by […] were recorded.

[2] = system: cytokines of the IL-1 family, especially IL-1β; details: prior knowledge; cited from earlier work
IL-6, TNF-α and LIF = details: prior knowledge; cited from earlier work
[3] = cited from earlier work
prostaglandin PGE2 = details: cited from earlier work
[4] = of 7 patients, 2×50 mg orally per day
[5] = patient one, 2nd visit, improved from Ritchie 1
[6] = patient three, 2nd visit, improved from Ritchie 2

With `CC(=O)Oc1cccc2c1C(=O)c1c(OC(C)=O)cc(C(=O)O)cc1C2=O` [diacerein, 4,5-bis(acetyloxy)-9,10-dihydro-9,10-dioxo-2-anthracene carboxylic acid] the “alteration of keratinocyte viability” value (human keratinocytes) was “did not cause any significant alteration”, the “effect on UVB-induced increase in IL-1 release” value (IL-1; 24 hours after UVB irradiation) was “prevented this effect” and the “dose down-regulating IL-1 release almost to baseline levels” value (IL-1; UVB-irradiated keratinocytes) was 0.1 µM. The “effect of timing of administration on IL-1 release” value (IL-1; before versus after UVB irradiation) was “more powerful when administered before UVB irradiation”, the “effect on constitutive levels of IL-1” value (IL-1; normal conditions, no UVB) was “did not affect” and the “effect on UVB-induced IL-6 release” value (IL-6; 24 hours after irradiation) was “caused a reduction”. The “effect of timing of addition on IL-6 release” value (IL-6; UVB-irradiated keratinocytes) was “significantly more effective when added both before and after UVB light”, the “dose giving significant reduction in IL-6 release” value (IL-6; added both before and after UVB) was 1 µM and the “dose necessary for down regulation of IL-6” value (IL-6; administered only before UVB) was 5 µM. The “effect on IL-6 levels” value (IL-6; basic conditions, no UVB) was “did not affect”, the “doses with significant reduction of UVB-induced IL-8 levels” value (IL-8; 24 hours after UVB irradiation) was 5 to 100 µM and the “effect of timing of addition on IL-8 release” value (IL-8; UVB-irradiated keratinocytes) was “more effective when given both before and after UVB irradiation”. For the same molecule, the “doses down-regulating TNF-α-induced IL-8 release” value (IL-8; keratinocytes stimulated with TNF-α, 24 hours) was 50 to 200 µM, the “effect on IL-8” value (IL-8; normal conditions, no stimulus) was “unaffected” and the “doses down-regulating UVB-induced TNF-α release” value (TNF-α) was 50 to 200 µM. For the same molecule, the adverse effect reported ([1]; all treated patients, caused drop-out) was “diarrhea in one patient”, the “number of patients who responded after 1 month” value [1, 4] was 4 patients and the “number of patients who responded after 2 months” value [1, 4] was 2 patients. For the same molecule, the “number of patients who responded after 3 months” value [1, 4] was 1 patients, the psoriasis status ([1]; patient five, 2nd visit Jul. 14, 2000, 1 month treatment, baseline PASI 10.1) was “Psoriasis: status unchanged” and the “Pain on VAS” value ([1]; patient five, 2nd visit, baseline 60 mm) was “Pain on VAS = 50 mm”. For the same molecule, the “Ritchie articular index, knee pain (bilateral)” value ([1]; patient five, 2nd visit, baseline Ritchie 1) was “had knee pain (bilateral) (Ritchie 1)”, the Responder ([1]; patient five, treatment period only 1 month) was “No as” and the Responder ([1]; patient four) was “Yes”. For the same molecule, the PASI score ([1]; patient four, 2nd visit Jul. 13, 2000, baseline 13.6) was “PASI score = 6.7”, the “Pain on VAS” value ([1]; patient four, 2nd visit, baseline 50 mm) was “Pain on VAS = 50 mm” and the “Ritchie articular index, shoulder sx” value ([1]; patient four, 2nd visit, baseline Ritchie 1) was “Shoulder sx: Unchanged”. For the same molecule, the “Ritchie articular index, hip sx” value ([1]; patient four, 2nd visit) was “Hip sx: Unchanged”, the “Ritchie articular index, TMC dx” value ([1]; patient four, 2nd visit, improved from Ritchie 1) was “TMC dx: Improved from Ritchie 1 to 0” and the PASI score ([1]; patient four, 3rd visit Aug. 30, 2000, baseline 13.6) was “PASI score = 2.2”. For the same molecule, the “Pain on VAS” value ([1]; patient four, 3rd visit, baseline 50 mm) was “Pain on VAS = 50 mm”, the “Ritchie articular index, shoulder sx” value ([1]; patient four, 3rd visit, baseline Ritchie 1) was “Shoulder sx: Unchanged” and the “Ritchie articular index, hip sx” value ([1]; patient four, 3rd visit) was “Hip sx: Unchanged”. For the same molecule, the “Ritchie articular index, TMC dx” value ([1]; patient four, 3rd visit, improved from Ritchie 1) was “TMC dx: Improved from Ritchie 1 to 0”, the Responder ([1]; patient one (stopped after 4 weeks)) was “Yes” and the PASI score ([1]; patient one, 2nd visit Aug. 18, 2000, after stopping treatment in mid-July and mild return, baseline 4.8) was “PASI score = 2.4”. The “Ritchie articular index, TMC sx” value [1, 5] was “TMC sx improved from Ritchie 1 to 0”, the “Ritchie articular index, shoulder sx” value [1, 5] was “Shoulder sx: improved from Ritchie 1 to 0” and the “Ritchie articular index, tibiotarsal joint sx” value ([1]; patient one, 2nd visit, improved from Ritchie 2) was “Tibiotarsal joint sx: improved from Ritchie 2 to 0”. The Responder ([1]; patient seven) was “Yes”, the PASI score ([1]; patient seven, 2nd visit Jun. 6, 2000, baseline 9.6) was “PASI score = 6.6” and the “Pain on the VAS” value ([1]; patient seven, 2nd visit, baseline 60 mm) was “Pain on the VAS = 50 mm”. For the same molecule, the PASI score ([1]; patient seven, 3rd visit Jul. 3, 2000, baseline 9.6) was “PASI = score 5.0”, the “Pain on the VAS” value ([1]; patient seven, 3rd visit, baseline 60 mm) was “Joint swelling decreased in all joints. Pain on the VAS = 40 mm” and the PASI score ([1]; patient seven, 4th visit Aug. 18, 2000, baseline 9.6) was “PASI score = 0.9”. For the same molecule, the Responder ([1]; patient six) was “Yes”, the psoriasis status ([1]; patient six, 2nd visit, after 2 months treatment, baseline PASI 8.1) was “disappeared in June” and the PASI score ([1]; patient six, 3rd visit Jul. 19, 2000 (psoriasis reappeared), baseline 8.1) was “PASI score = 3.9”. For the same molecule, the “Ritchie articular index, right knee” value ([1]; patient six, 4th visit, baseline Ritchie 3) was 0, the “Pain on the VAS” value ([1]; patient six, right knee, 3rd visit, baseline 50 mm) was “VAS = 50 mm” and the “pain (VAS)” value ([1]; patient six, right knee, 4th visit Aug. 29, 2000, baseline 50 mm) was 1 cm. For the same molecule, the Responder ([1]; patient three) was “Yes”, the PASI score ([1]; patient three, 2nd visit Jul. 20, 2000, baseline 6.9) was “PASI score = 6.9” and the “Ritchie articular index, wrist dx” value [1, 6] was “Wrist dx: improved from Ritchie 2 to 1”. For the same molecule, the “Ritchie articular index, wrist sx” value [1, 6] was “Wrist sx: improved from Ritchie 2 to 0”, the “Ritchie articular index, wrist sx” value ([1]; patient three, 3rd visit) was “Wrist sx: Ritchie 0” and the Morning stiffness ([1]; patient three, 3rd visit Aug. 24, 2000) was “Morning stiffness = 30 minutes”. The PASI score ([1]; patient three, 3rd visit Aug. 24, 2000, baseline 6.9) was “PASI score = 3.9”, the “Ritchie articular index, wrist dx” value ([1]; patient three, 3rd visit, improved from Ritchie 1) was “Arthritis: Wrist dx: improved from Ritchie 1 to 0” and the Responder ([1]; patient two (stopped after 1 month, diarrhea)) was “Yes”. The PASI score ([1]; patient two, 2nd visit Jul. 20, 2000, baseline 0.6) was “PASI score = 0.1”, the “Ritchie articular index, 2nd MCF dx” value ([1]; patient two, 2nd visit, printed as improved from Ritchie 1, baseline Ritchie 2) was “Arthritis: 2nd MCF, dx, improved from Ritchie 1 to Ritchie 0” and the “patients who responded to treatment (improvement on PASI score)” value ([1]; seven patients who took Diacerein one month or more, 2×50 mg capsules orally per day) was 100%. For the same molecule, the “effect on synthesis and activity of pro-inflammatory catabolic cytokines of the IL-1 family, especially IL-1β” value [2] was “inhibit the synthesis and activity”, the “effect on IL-6 and other cytokines such as TNF-α and LIF” value (IL-6, TNF-α and LIF) was “inhibit IL-6 and other cytokines such as TNF-α and LIF” and the carcinogenic potential ([3]; extensive toxicology studies) was “does not show carcinogenic potential”. For the same molecule, the tolerability ([3]; prior use in osteoarthritis and rheumatoid arthritis, toxicology studies) was “well tolerated”, the gastrotoxic potential (prostaglandin PGE2; inferred from no effect on PGE2 production) was “does not have gastrotoxic potential” and the “effect on prostaglandin PGE2 production” value (prostaglandin PGE2; prior knowledge) was “not to effect prostaglandin PGE2 production”.
